Read-outs that look alike come from different tables or passages of the source.
Key:
cytochrome c [1] = biological target: T1, cytochrome c (Equus caballus, UniProt P00004); test: Fluorescence quenching of labelled peptides by cytochrome c; type: binding, horse; parameters: from tissue; host or cells: horse heart; details: additions of 75 μg/ml BSA
[2] = test system: isolated rat kidney mitochondria / cytochrome c-deficient mitoplasts; test: Fluorescence quenching by isolated mitochondria or cytochrome c-deficient mitoplasts; type: binding
Method: The quenching by cytochrome c was not displaced by sequential additions of bovine serum albumin (FIG. 12C, A+arrows) (500 μg/ml). […] Accordingly, aromatic-cationic peptides of the present disclosure are useful for the prevention or treatment of diseases or disorders characterized by dysregulation of cytochrome c.
Uptake of [atn]SS-02 by isolated mitochondria or cytochrome c-deficient mitoplasts was determined by fluorescence quenching of [atn]SS-02 (λex/λem=320/420) upon addition of a fresh mitochondrial or mitoplast suspension (0.35 mg).
Mitochondria were isolated from the kidney of male Sprague-Dawley rats (Charles River Laboratories International, Inc., Wilmington, Mass.) weighing 250 to 300 g. Excised kidneys were cut and incubated in wash buffer (200 mM mannitol, 10 mM sucrose, 5 mM HEPES, 1 g/L fatty-acid-free BSA, to pH to 7.4 with KOH) on ice for 10 minutes. Samples were washed 2 times in isolation buffer (wash buffer with 1 mM EGTA), homogenized for 3 minutes, and then centrifuged in 20 ml of isolation buffer at 900×g for 10 minutes. The white fatty acid layer was then removed and the […]. The supernatant was centrifuged at 11,000×g for 10 minutes, and the pellet was re-suspended in 800 μl of wash buffer and kept on ice for further analysis.
Mitoplasts deficient in cytochrome c were prepared by first treating fresh or once-frozen mitochondria with 3.3 mg/ml digitonin for 45 minutes on ice, in order to remove the mitochondrial outer membrane. To remove electrostatically-bound cytochrome c, […] pH 7.4 was then added to the mix and centrifuged at 19,000×g for 30 minutes. The pellet was collected and re-dissolved in wash buffer and stored on ice until use. Only mitoplast preparations that responded to the addition of 200 nM exogenous cytochrome c by 4-5 fold increase in mitochondrial respiration (oxygen consumption) were used in the study. […]

isolated mitochondria = test: ATP synthesis in isolated mitochondria; type: biochemical, rat
Method: Fresh mitochondria were isolated from rat kidney as described previously. Electron flux was measured by O2 consumption (Oxygraph Clark electrode) as previously described using different substrates for C1 (glutamate/malate), C2 (succinate), and C3 (TMPD/ascorbate). Assays were carried out under low substrate conditions in order to avoid saturating the enzyme reactions. ATP production in isolated mitochondria was determined kinetically using the luciferase method (Biotherma) in a 96-well luminescence plate reader (Molecular Devices). The initial maximal rate for ATP synthesis was determined over the first minute.
The rate of mitochondrial ATP synthesis was determined by measuring ATP in respiration buffer collected from isolated mitochondria 1 min after addition of […] (FIG. 6). ATP was assayed by HPLC. All experiments were carried out in triplicate, with n=3. […] Accordingly, aromatic-cationic peptides of the present disclosure are useful for increasing ATP synthesis in mitochondria and for treating diseases or disorder characterized by dysregulation of ATP synthesis.
SS-20 or SS-31 was added at 100 μM concentrations to isolated mitochondria in respiration buffer containing 0.5 mM succinate (complex II substrate) and 400 μM ADP. Similar increases in O2 consumption were observed when low concentrations of complex I substrates (glutamate/malate) were used (data not shown). […] Accordingly, targeting SS-20 and SS-31 to the IMM can facilitate electron flux in the electron transport chain and improve ATP synthesis, especially under conditions of reduced substrate supply.
Increase in electron flux in the electron transport chain can either result in increase in ATP synthesis or increase in electron leak and generation of free radicals. ATP synthesis in isolated mitochondria was assayed by HPLC. […] Accordingly, aromatic-cationic peptides of the present disclosure are useful for increasing ATP synthesis in mitochondria and for treating diseases or disorder characterized by dysregulation of ATP synthesis.

cytochrome c [3] = biological target: T1, cytochrome c; test: Circular dichroism of Soret band of cytochrome c; type: biochemical
Method: Circular dichroism (Olis spectropolarimeter, DSM20) was carried out to monitor Soret band (negative peak at 415 nm), as a probe for the π-π* heme environment in cytochrome c (FIG. 4). […] The increase in π-π* interaction around the heme would enhance electron tunneling which would be favorable for electron diffusion. Accordingly, aromatic-cationic peptides of the present disclosure are useful for the prevention or treatment of diseases or disorders characterized by dysregulation of cytochrome c, and to induce novel π-π interactions around cytochrome c heme.

T1 sequence (P00004 2-105 limits assumed): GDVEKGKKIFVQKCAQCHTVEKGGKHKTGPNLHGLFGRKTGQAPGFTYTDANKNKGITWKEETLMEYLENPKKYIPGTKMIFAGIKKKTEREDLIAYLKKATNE

Substance | reversal of cytochrome c quenching by BSA (cytochrome c [1]) | quenching of fluorescence by cytochrome c-depleted/deficient mitoplasts versus mitochondria [2] | quenching of fluorescence by isolated mitochondria ([2]; 10 μM peptide, 0.2 mg mitochondria) | quenching of fluorescence by cytochrome c-depleted/deficient mitoplasts versus mitochondria ([2]; listed as [atn]SS-02) | rate of ATP synthesis (isolated mitochondria; 1 min after addition of 400 mM ADP, HPLC) | ATP synthesis (isolated mitochondria; assayed by HPLC (Example 18)) | rate of ATP production (isolated mitochondria; mitochondria energized with low concentrations of succinate) | position of Soret band negative peak after peptide (415 nm before) (cytochrome c [3]) [nm]
2′,6′-Dmt-D-Arg-Phe-(atn)Dap-NH2 [SS-19] | did not reverse quenching | significantly reduced | quenched by sequential addition of 0.2 mg isolated rat renal kidney mitochondria | appreciable in cytochrome c-deficient mitoplasts but was less than in intact mitochondria | – | – | – | –
D-Arg-2′,6′-Dmt-Lys-Phe-NH2 [SS-31] | – | – | – | – | dose-dependently increased the rate of ATP synthesis | dose-dependently increased ATP synthesis | significant increase in the rate of ATP production | 440
